Data as given in PMC8097418, “In Vitro and In Vivo Antibacterial Activities of a Novel Quinolone Compound, OPS-2071, against Clostridioides difficile” (Antimicrobial Agents and Chemotherapy, 2021).
In brackets after ≈: the same amount, converted by molar mass. Like-named read-outs stand apart in the source and are kept apart here.

What was measured:
[1] = system: 54 clinically isolated C. difficile strains; test: MIC by agar dilution against 54 clinically isolated strains; format: cell-based, Clostridioides difficile; conditions: Clostridioides difficile, 54 clinically isolated C. difficile strains; for MIC50: read-out: MIC50
Method: (§1) MICs obtained using the agar dilution method were determined visually as described for the CLSI method ([41], [42]). MICs obtained using the broth dilution method were determined visually based on the CLSI method except for using Gifu anaerobic medium (GAM) broth instead of supplemented Brucella broth ([41], [42]).

[2] = system: hypervirulent and nonhypervirulent strains of C. difficile (62 strains); test: MIC distribution against 20 hypervirulent and 42 nonhypervirulent strains; format: cell-based, Clostridioides difficile
[3] = system: 10 clinical isolates of C. difficile; test: MIC (broth dilution) and MBC testing, 10 clinical isolates; format: cell-based, Clostridioides difficile; conditions: for MBC Range: >99.9% reduction within 48 h; for MIC90 / MBC: Clostridioides difficile; for MBC: read-out: MBC90
Method: In this test, MIC testing was performed using the broth dilution method as recommended in the CLSI ([41]). After the MICs were determined, 10 μl of the bacterial suspension from the MIC test tube was inoculated onto agar plates and incubated at 37°C. The bacterial colonies were then counted and bacterial numbers were calculated. The MBC was considered to be the lowest concentration of the antibiotics that prevented growth and reduced the inoculum by >99.9% within 48 h, irrespective of counts of survivors at higher antibiotic concentrations.

[4] = system: C. difficile ATCC 700057; test: MIC by broth dilution (GAM broth); format: cell-based, Clostridioides difficile
Method: as §1

[5] = system: C. difficile ATCC 700057; test: Killing kinetics (time-kill curves); format: cell-based, Clostridioides difficile; conditions: time-kill, up to 48 h
Method: The test tubes were incubated for 48 h. The CFU/ml values of the bacterial suspensions were calculated at 0, 2, 4, 6, 24, and 48 h by culturing 0.1-ml samples of serial 10-fold dilutions on GAM agar plates at 37°C under anaerobic conditions and then counting the number of growing colonies. The CFU/ml value at each time point is from one sample of datum.

[6] = system: C. difficile ATCC 700057; test: MIC by agar dilution (CLSI) against quality control strain; format: cell-based, Clostridioides difficile
Method: as §1

[7] = system: C. difficile ATCC 700057; format: cell-based, Clostridioides difficile
[8] = system: C. difficile ATCC 700057; test: Mutant prevention concentration; format: cell-based, Clostridioides difficile; conditions: approximately 10^10 CFU, 3 days
Method: The mutant prevention concentration was measured by plating approximately 10^10 CFU of C. difficile ATCC 700057 onto a GAM agar plate containing the test agent. Inoculated plates were incubated for 3 days, and the MIC for each antibiotic that prevented the growth of colonies was determined using the agar dilution method as described by the CLSI ([41]). The MIC values of grown colonies were compared to determine which bacteria were resistant. The MPC was defined as the lowest concentration that prevented the growth of resistant bacteria.

[9] = system: C. difficile ATCC 700057; test: Postantibiotic effect (PAE); format: cell-based, Clostridioides difficile; conditions: for Postantibiotic effect: 1 h exposure
Method: C. difficile ATCC 700057 was cultured in GAM agar and adjusted in GAM broth to approximately 10^6 CFU/ml. The bacterial suspensions were preincubated at 37°C for 1 h. […] After preincubation, test and reference solutions were added to each bacterial suspension in a test tube, and the suspensions were cultured for 1 h. After exposure to the test compounds, bacterial suspensions were washed with GAM broth and cultured for 6 h. […] The PAE was defined according to Craig and Gudmundsson as PAE = T − C, where T is the time required for the viable counts of the exposed bacteria to increase by 1 log10 above the counts observed immediately after washing, and C is the corresponding time for the antibiotic unexposed controls ([44]).

[10] = system: C. difficile ATCC 43255; test: In vivo hamster model of C. difficile infection; set-up: species or system golden Syrian hamsters
Method: C. difficile ATCC 43255 was cultured on GAM agar, and a bacterial suspension was prepared in saline ([26]). […] Hamsters were infected using oral gavage with 0.5 ml of suspension containing approximately 10^6 CFU of C. difficile (day −1). The next day, the animals were administered clindamycin phosphate (0.2 mg/ml in water) by oral gavage at a dose of 5 ml/kg of body weight, for a final dose of 1 mg/kg (day 0). The animals were allocated to the test groups using a stratified randomization method based on the body weight of each infected animal. The test compounds were administered by oral gavage once daily for 5 days (OPS-2071, 0.008 to 1 mg/kg; fidaxomicin, 0.04 mg/kg to 5 mg/kg; vancomycin, 0.04 to 5 mg/kg [5-fold dilution]). Infected control animals were administered 5% (wt/vol) gum arabic solution by oral gavage. […] The cecal contents of dead animals were tested for toxin A and toxin B using C.Diff Quik Chek Complete (Abbott Diagnostics Medical Co., Ltd., Tokyo, Japan) to confirm that the death of the animal was due to CDI.
The statistical significance of OPS-2071, fidaxomicin, and vancomycin treatment was analyzed at all doses against vehicle. Survival curves were estimated for each group using the Kaplan-Meier method. Differences in survival homogeneity in each group were evaluated with a log-rank test with Dunnett-type (two-sided) comparison.

[11] = system: C. difficile ATCC 43255; test: MIC against the infection strain; format: cell-based, Clostridioides difficile
[12] = system: C. difficile ATCC 700057; test: Effect of pH on MIC (agar dilution); format: cell-based, Clostridioides difficile; conditions: Clostridioides difficile
[13] = cited from earlier work
[14] = system: C. difficile ATCC 43255; set-up: method as in PMID 22869573; conditions: cited from earlier work
[15] = Clostridioides difficile, hypervirulent strains (n = 20)
[16] = Clostridioides difficile, nonhypervirulent strains (n = 42)
[17] = nonhypervirulent strains (n = 42)
[18] = 10 clinical isolates, broth dilution
[19] = Clostridioides difficile, ATCC700057, broth dilution, retested for the time-kill assay, read-out: MIC

Cc1ncc([N+](=O)[O-])n1CCO [Metronidazole]
MIC90 [1]: 4 µg/mL (≈ 23.4 µM)
MIC50 [1]: 2 µg/mL (≈ 11.7 µM)
MIC50 [2, 15]: 0.5 µg/mL (≈ 2.92 µM)
MIC90 [2, 15]: 1 µg/mL (≈ 5.84 µM)
MIC50 [2, 16]: 0.25 µg/mL (≈ 1.46 µM)
MIC90 [2, 16]: 0.5 µg/mL (≈ 2.92 µM)
Cumulative percentage of strains ([2]; Non-hyp (n = 42), MIC […] μg/ml): 100%
MIC range ([2]; hypervirulent strains (n = 20)): 0.25 to 16 µg/mL
MIC range [2, 17]: 0.25 to 1 µg/mL
MBC Range ([3]; 10 clinical isolates): 1 to 4 µg/mL
MIC range [3, 18]: 1 to 4 µg/mL
MIC90 ([3]; 10 clinical isolates, broth dilution, read-out: MIC90): 4 µg/mL (≈ 23.4 µM)
MBC ([3]; 10 clinical isolates): 4 µg/mL (≈ 23.4 µM)
MIC [4, 19]: 0.5 µg/mL (≈ 2.92 µM)
concentration needed for an undetectable level to be reached [5]: over 2 fold MIC

CN[C@H](CC(C)C)C(=O)N[C@H]1C(=O)N[C@@H](CC(N)=O)C(=O)N[C@H]2C(=O)N[C@H]3C(=O)N[C@H](C(=O)N[C@H](C(=O)O)c4cc(O)cc(O)c4-c4cc3ccc4O)[C@H](O)c3ccc(c(Cl)c3)Oc3cc2cc(c3O[C@@H]2O[C@H](CO)[C@@H](O)[C@H](O)[C@H]2O[C@H]2C[C@](C)(N)[C@H](O)[C@H](C)O2)Oc2ccc(cc2Cl)[C@H]1O [Vancomycin]
MIC90 [1]: 4 µg/mL (≈ 2.76 µM)
MIC50 [1]: 2 µg/mL (≈ 1.38 µM)
MIC50 ([2]; Clostridioides difficile, hypervirulent strains (n = 20), read-out: MIC50): 1 µg/mL (≈ 0.69 µM)
MIC90 ([2]; Clostridioides difficile, hypervirulent strains (n = 20), read-out: MIC90): 1 µg/mL (≈ 0.69 µM)
MIC90 ([2]; Clostridioides difficile, nonhypervirulent strains (n = 42), read-out: MIC90): 2 µg/mL (≈ 1.38 µM)
MIC range ([2]; hypervirulent strains (n = 20)): 1 to 2 µg/mL
MIC50 [2, 17]: 1 µg/mL (≈ 0.69 µM)
MIC range [2, 17]: 0.5 to 4 µg/mL
MBC Range ([3]; 10 clinical isolates): 4 to 8 µg/mL
MIC range [3, 18]: 2 to 4 µg/mL
MIC90 [3]: 4 µg/mL (≈ 2.76 µM)
MBC [3]: 8 µg/mL (≈ 5.52 µM)
MIC ([6]; Clostridioides difficile, ATCC700057, quality control strain ATCC 700057, CLSI method, read-out: MIC): 2 µg/mL (≈ 1.38 µM)
MIC ([6]; agar dilution, determined for the spontaneous resistance assay): 2 µg/mL (≈ 1.38 µM)
MIC [4, 19]: 4 µg/mL (≈ 2.76 µM)
MIC ([4]; broth method, determined for the PAE assay): 4 µg/mL (≈ 2.76 µM)
concentration needed for an undetectable level to be reached [5]: over 2 fold MIC
Frequency of spontaneous resistance ([7]; 4× MIC): <9.17 × 10^–9
Frequency of spontaneous resistance ([7]; 16× MIC): <9.17 × 10^–9
Frequency of spontaneous resistance ([7]; 64× MIC): <9.17 × 10^–9
mutant prevention concentration (MPC) [8]: 8 µg/mL
PAEs at 4- and 8-fold the MIC ([9]; 4- and 8-fold the MIC): 1.03 to 1.25 h
Postantibiotic effect ([9]; 4× MIC): 1.03 h
Postantibiotic effect ([9]; 8× MIC): 1.25 h
50% effective dose (ED50) ([10]; survival on day 20, oral once daily for 5 days, probit method): 1.22 mg/kg/day
dosages with significant efficacy compared with vehicle control ([10]; survival, log-rank test): ≥ 1 mg/kg
MIC [11]: 2 µg/mL (≈ 1.38 µM)
MIC ([12]; ATCC700057, pH 6): 2 µg/mL (≈ 1.38 µM)
MIC ([12]; ATCC700057, pH 7): 2 µg/mL (≈ 1.38 µM)
MIC ([12]; ATCC700057, pH 8): 2 µg/mL (≈ 1.38 µM)
oral bioavailability [13]: < 10%

CCC[C@@H]1C[C@@H](C(=O)N[C@@H]([C@H]2O[C@H](SC)[C@H](O)[C@@H](O)[C@H]2O)[C@H](C)Cl)N(C)C1 [clindamycin]
MIC [14]: 8 µg/mL (≈ 18.8 µM)
